Laboratory results as given in US20110287432A1, “SYSTEM AND METHOD FOR TAILORING NUCLEOTIDE CONCENTRATION TO ENZYMATIC EFFICIENCIES IN DNA SEQUENCING TECHNOLOGIES” (454 Life Science Corporation, priority 2010, published 2011).

What was measured:
polymerase and apyrase = assay: Sequencing of C. jejuni shotgun libraries, nucleotide-specific CAFIE fit of raw reads; assay type: biochemical; settings: average over 200 reads
Text: In the present example, DNA Shotgun libraries of the genome C. jejuni were sequenced to calculate the nucleotide species concentrations optimized for polymerase and apyrase efficiencies. The second (TA) and the third (CG) columns of Table 4 show the relative percentage of T and A to C and G nucleotide species concentrations used in sequencing runs where a value for the 100% concentration may be based upon the calculated and normalized species relative ratio values from Table 3. For instance, using the figures from Table 3 100% of the G nucleotide species is 1.2 times greater the 100% of the C nucleotide species given the concentration ratio. Those of ordinary skill in the art will appreciate that C. jejuni is an AT rich genome generally meaning that there is a higher incidence of A and T nucleotide species in the genome composition than C and G nucleotide species. Thus, the relative percentages for TA and GC concentrations illustrated in FIG. 4 reflect that fact and typically would be different for a GC rich genome (i.e. the genome of T. thermophilus).
The average completion efficiency (i.e. to estimate incomplete extension) and carry forward values of each individual nucleotide species were inferred using a method described in detail below. The last column presents the average read lengths (RL) of the high quality reads obtained where increased read length correlates to an increased level of optimization of the combination of each nucleotide species concentration that is balanced for the species specific incorporation efficiency of polymerase to degradation efficiency of apyrase.
The average completion efficiencies and carry forward values of the individual nucleotide species were inferred using nucleotide-specific CAFIE (carry forward and incompletion extension) fit. For example, the sequencing process produces raw sequence reads typically processed by an embodiment of Image and Signal Processing software such as application 135. In the present example, application 135 maps (also referred to as an alignment by those of ordinary skill in the art) the raw sequence reads generated to a reference genome sequence associated with the samples sequenced, such as a consensus reference sequence of C. jejuni. As will be evident to those of ordinary skill, mapping/aligning the raw uncorrected sequence reads to a reference sequence can be employed to determine where CAFIE error occurs and determination of incidence of nucleotide species specific CAFIE error.
In the presently described example application 135 mapped 200 uncorrected sequence reads, represented as flowgrams, to the reference genome sequence and the first 100 iterations of the nucleotide flows considered for determination of optimal concentration of each of the nucleotide species by inferring the completion efficiencies and carry forward values. The detected signal strengths of each of the four nucleotide species were first normalized using the median 1-mer value for all nucleotide species. The term “1-mer value” as used herein generally refers to a value reflecting the degree of detected signal in response to an incorporation of a nucleotide species at a single sequence position which should be substantially the same for each of the nucleotide species. Typically this the 1-mer value is easiest to calculate from detected signals obtained at the beginning of a sequencing run of a template nucleic acid molecule because the key element in an adaptor includes a single representative of each nucleotide species in a key element at a known position (i.e. a TCAG key element) and thus it is expected that only a single nucleotide of each species is incorporated at each of the four sequence positions.
The completion efficiency and carry forward values illustrated in Table 4 can be inferred using a three-stage minimization process for each individual sequence read. […]

apyrase = assay: Enzyme kinetics of apyrase across multiple nucleotides (Michaelis-Menten); assay type: biochemical; settings: for Km: Michaelis constant of apyrase for the nucleotide species; for VApy-dNTP (estimated apyrase activity): Michaelis-Menten calculation, dTTP, α-thio-dATP, dCTP, dGTP at 40.3, 166.1, 16.3, 19.7 μM; for Vmax: maximum rate of apyrase for the nucleotide species; for Apyrase activity ratio: normalized to the value of dCTP
Text: The nucleotide species specific steady-state apyrase concentration may be computed using what is referred to as the Michaelis-Menten kinetics to mathematically approximate the kinetic characteristics of an enzyme based upon the assumption that simple kinetic conditions exist. The Michaelis-Menten equation uses constant values that vary by nucleotide species and include the Michaelis constant KM and the maximum rate Vmax of enzyme activity in a reaction environment.
In the present example, apyrase is effectively exposed to only one type of nucleotide species at a given time due to the iterative nature of the sequencing reagent flows. The reaction rates between apyrase and each nucleotide species can be estimated using the following formula: […]
where [dNTP] is the concentration of dTTP, dATP, dCTP or dGTP.
Continuing with the present example, the nucleotide species concentrations used for the computation for dTTP, α-thio-dATP, dCTP and dGTP are 40.3, 166.1, 16.3 and 19.7 μM respectively in the reaction environment. It will be appreciated that the concentration value for α-thio-dATP is substantially higher than the concentrations of the other nucleotide species which is due to the modification that has an inhibitory effect upon the incorporation efficiency of a polymerase enzyme (i.e. thus a higher concentration improves the likelihood of polymerase incorporation) as well as an increased processing efficiency of the apyrase as illustrated in greater detail below. In some embodiments the more “natural” dATP species may be used in place of α-thio-dATP and may have a different value for nucleotide species concentration reflecting the higher efficiency of enzyme processing for that species. The estimated activities of apyrase from the Michaelis-Menten calculation towards the different nucleotide species are shown in the Table 2 below. It should again be noted that the calculated efficiency of apyrase to α-thio-dATP illustrated in Table 2 is substantially higher than for the other species and thus apyrase would be expected to process a higher concentration of α-thio-dATP in an efficient manner.

[1] = Run 1, relative concentration TA 120%, CG 140%
[2] = Run 2, relative concentration TA 140%, CG 140%
[3] = Run 3, relative concentration TA 120%, CG 160%

SMILES | average carry forward (polymerase and apyrase; [1]) | average completion efficiency (polymerase and apyrase; [1]) | average carry forward (polymerase and apyrase; [2]) | average completion efficiency (polymerase and apyrase; [2]) | average carry forward (polymerase and apyrase; [3]) | average completion efficiency (polymerase and apyrase; [3]) | Km (apyrase) | VApy-dNTP (estimated apyrase activity) (apyrase) | Vmax (apyrase) | Apyrase activity ratio (apyrase)
Nc1nc2c(ncn2[C@H]2C[C@H](O)[C@@H](COP(=O)(O)OP(=O)(O)OP(=O)(O)O)O2)c(=O)[nH]1 [dGTP] | 0.0048 | 0.9990 | 0.0075 | 0.9992 | 0.0057 | 0.9994 | 8.1 µM | 51.2 μM/10 min | 47.4 μM/10 min | 1.6
Nc1ncnc2c1ncn2[C@H]1C[C@H](O)[C@@H](COP(O)(=S)OP(=O)(O)OP(=O)(O)O)O1 (stereo partly drawn) [α-thio-dATP] | 0.0035 | 0.9977 | 0.0033 | 0.9971 | 0.0043 | 0.9978 | 115 µM | 137.5 μM/10 min | 232.6 μM/10 min | 4.3
Nc1ccn([C@H]2C[C@H](O)[C@@H](COP(=O)(O)OP(=O)(O)OP(=O)(O)O)O2)c(=O)n1 [dCTP] | 0.0062 | 0.9988 | 0.0058 | 0.9986 | 0.0065 | 0.9991 | 76.5 µM | 31.7 μM/10 min | 250.0 μM/10 min | 1.0
Cc1cn([C@H]2C[C@H](O)[C@@H](COP(=O)(O)OP(=O)(O)OP(=O)(O)O)O2)c(=O)[nH]c1=O [dTTP] | 0.0006 | 0.9968 | 0.0013 | 0.9975 | 0.0008 | 0.9959 | 107 µM | 80.4 μM/10 min | 294.1 μM/10 min | 2.5
